Measured values reported in patent US20110207751A1, “HETEROCYCLIC COMPOUNDS AND USES AS ANTICANCER AGENTS” (priority 2010, published 2011).
Counter-ions that a name gives are not always drawn.

Columns and labels:
[1] = system: A549 human non-small cell lung cancer xenograft; test: In vivo antitumor efficacy, A549 xenograft; parameters: species or system BALB/c immunodeficient nude mice
Excerpt: To evaluate the in vivo anticancer efficacy of COMPOUND O, A549 human non-small cell lung cancer xenograft models in immunodeficient nude mice was used. The cell line and mice were maintained in the Pharmacology Lab of ACEA Bio (Hangzhou) CO., Ltd. The BALB/c immunodeficient nude mice were purchased from Shanghai SLAC Laboratory Animal, certification number: SCXKA (Shanghai) 2007-0005. The mouse weight was between 21±1 g. Only female mice were used in this study. The numbers of animals tested were as follow: 7-8 for each dose group, 6 for positive control group and 7 for negative control group.
Test Control. For negative control, each mouse was administered orally with the solvent only having the same volume and same concentration as those used in COMPOUND O test, 120 mg/kg once every other day (qod) for 25 days. For positive control, an oral anticancer compound, Etoposide was administered orally at 30 mg/kg qod for 25 days.
Preparation an Administration of Test Compounds. COMPOUND O was dissolved in 25% phospholipid (S75) and 75% polyvinylpyrrolidone (PL-PVP) then further diluted to 8 mg/ml in 0.9% NaCl aqueous solution. Each mouse was administered orally with the compound solution. Different dosages of COMPOUND O (120 mg/kg qod and 160 mg/kg q2*2 (dosing for 2 consecutive days then off for 2 consecutive days) were used in the study.
Preparation of tumor cells for transplantation and determination of compound efficacy. To prepare the cancer cells for A549 human non-small cell lung cancer xenograft model, the log phase growing cell in the flask were trypsinized and cells were re-suspended in PBS (pH 7.2) at 2.5×10^7 cells/ml. The cell suspension (5×10^6 cells) was subcutaneously injected into the auxiliary region (right-side) of each mouse. After the inoculated cancer cells grew to a tumor of certain size (50-60 mm^3) in the nude mice (about 15 days post inoculation), the mice were randomized into different dosing groups and subjected to compound treatment. Between 3-4 weeks after the first dosing, mice were sacrificed and the transplanted tumors were removed from experimental mice. Each removed solid tumor was weighed; the tumor inhibition rate in each dosage group was calculated according to equation (1) in Example 1.
All used materials including animal food, animal cage, supporting materials and apparatus contacted by animals, were high-pressure sterilized. Nude mice were maintained in laminar flow shelves under SPF condition. After tumor transplantation, mouse weight and tumor size in each compound dosage group were dynamically monitored and plotted. The tumor size was determined by measuring the major axis (a) and minor axis (b) of the tumor, and tumor volume was calculated according to the formula (2) in Example 1.

[2] = system: SW620 cells (human colon cancer cell line); test: Inhibition of cell proliferation, xCelligence cell index; format: cell-based; settings: SW-620, 72 hr post compound treatment, read-out: calculated IC50
Excerpt: The biological activity of compounds disclosed herein was monitored and profiled using the Real-Time Cell Electronic Sensing (RT-CES®) system from ACEA Biosciences, Inc. The RT-CES system utilizes cell-substrate impedance technology to monitor cellular behavior inside tissue culture wells in a microtiter plate format. The technology features in the integration of molecular and cell biology with microelectronics and is based on the electronic detection of biological assay process. […]
For measurement of cell-substrate or cell-electrode impedance using RT-CES technology, microelectrodes having appropriate geometries are fabricated onto the bottom surfaces of microtiter plate or similar device, facing into the wells. […] When there are changes to the biological status of the cells analogue electronic readout signals are measured automatically and in real time, and are converted to digital signals for processing and for analysis. In a RT-CES system, a cell index (arbitrary representation of change in impedance) is automatically derived and provided based on measured electrode impedance values. […]
To quantify cell status based on the measured cell-electrode impedance, a parameter termed Cell Index is derived. Cell Index is a quantitative measure of the status of the cells in an electrode-containing well. […]

Compound	TV inhibition rate % T/C ([1]; 120 mg/kg ig × 14 qod)	Tumor volume (mm^3) End ([1]; 120 mg/kg ig × 14 qod)	Tumor volume (mm^3) Start ([1]; 120 mg/kg ig × 14 qod)	Tumor weight (g) x ± SD ([1]; 120 mg/kg ig × 14 qod)	Tumor inhibition rate % ([1]; 120 mg/kg ig × 14 qod, by tumor weight)	TV inhibition rate % T/C ([1]; 160 mg/kg ig × 11 q2*2)	Tumor volume (mm^3) End ([1]; 160 mg/kg ig × 11 q2*2)	Tumor volume (mm^3) Start ([1]; 160 mg/kg ig × 11 q2*2)	Tumor weight (g) x ± SD ([1]; 160 mg/kg ig × 11 q2*2)	Tumor inhibition rate % ([1]; 160 mg/kg ig × 11 q2*2, by tumor weight)	IC50 [2]	TV inhibition rate % T/C ([1]; 30 mg/kg ig × 13 qod)	Tumor volume (mm^3) End ([1]; 30 mg/kg ig × 13 qod)	Tumor volume (mm^3) Start ([1]; 30 mg/kg ig × 13 qod)	Tumor weight (g) x ± SD ([1]; 30 mg/kg ig × 13 qod)	Tumor inhibition rate % ([1]; 30 mg/kg ig × 13 qod, by tumor weight)
CCc1ccc(Nc2nc(-c3c(C)nc4sccn34)cs2)cc1 [COMPOUND O, 2-(4-ethylphenyl)amino-4-(6-methylimidazo[2,1-b]thiazol-5-yl)-thiazole monohydrobromide]	37.5%	244 ± 105 mm^3	53.31 ± 24.5 mm^3	0.25 ± 0.08 g	67.8%	47.9%	265 ± 135 mm^3	45.25 ± 15.9 mm^3	0.29 ± 0.11 g	62.5%	2.65 nM					
COc1cc([C@@H]2c3cc4c(cc3[C@@H](O[C@@H]3O[C@@H]5CO[C@@H](C)O[C@H]5[C@H](O)[C@H]3O)[C@H]3COC(=O)[C@H]23)OCO4)cc(OC)c1O [Etoposide, reference compound]												40.0%	243 ± 121 mm^3	57.42 ± 23.5 mm^3	0.27 ± 0.15 g	59.9%
CC(=O)O[C@H]1C(=O)[C@@]2(C)[C@H]([C@H](OC(=O)c3ccccc3)[C@]3(O)C[C@H](OC(=O)[C@H](O)[C@@H](NC(=O)c4ccccc4)c4ccccc4)C(C)=C1C3(C)C)[C@]1(OC(C)=O)CO[C@@H]1C[C@@H]2O [paclitaxel]											0.998 nM					
